Test system: DC-associated HA
Assay: Binding of biotinylated peptide to DC surfaces
Details: biotinylated form
Experimental: FIGS. 8B-D. Synthesis and surface expression of HA by DC. (B) XS106 DC were labeled with ^3H-glucosamine and then examined for the incorporation of hyaluronidase-sensitive radioactivities (means+/−s.e.m.; n=5) into the indicated subcellular fractions. (C) XS106 DC were incubated with biotinylated Pep-1 or RP and then with PE-conjugated streptavidin (filed histograms) (Mummert et al. J. Exp. Med. 192:769-779, 2000) or bovine testis hyaluronidase. Baseline staining levels with PE-streptavidin alone are shown with open histograms. (D) The indicated DC preparations were examined for binding of biotinylated Pep-1 (filled) and RP (open). Peptide binding to splenic DC and bone marrow-DC was examined within the CD11c^+ populations.

binding to surfaces of XS106 DC: no significant binding
Sequence: SATPASAPYPLA [RP, reference compound]

— patent publication US6852696B2, “Inhibitors of glycosaminoglycans” (The University of Texas System, priority 1999, dated 2005)
